Reference: US20250186423A1, “METHODS OF TREATING CANCER AND OTHER CONDITIONS WITH A MU OPIOID RECEPTOR ANTAGONIST” (priority 2022, published 2025)

What was measured:
[1] = system: Human umbilical vein endothelial cells (HUVEC); assay: HUVEC cell tube formation; type: cell-based; settings: 0-1000 nM, 18 hours, absence of exogenous opioids
Protocol: Two independent model systems were used to explore the role of MOR and endogenous opioids on angiogenesis. Human umbilical vein endothelial cells (HUVEC) in culture initiate angiogenesis through tube formation when cultured on an appropriate extracellular matrix. In a living system, the chicken egg chorioallantoic membrane assay (CAM) allows direct visualization of new blood vessel formation.
Specifically, the HUVEC cell tube formation was assessed in the presence of various doses (0-1000 nM) of three different Mu opioid receptor antagonists (axelopran, naloxegol, and methylnaltrexone (MNTX)). For this testing, the HUVEC cells were exposed to the various MOR antagonist concentrations and incubated under the following conditions: Briefly, 50 μL of Matrigel in 96 well plates was loaded to make one layer of extracellular matrix. The plate was kept for 1 hour at 37° C. HUVEC cells were seeded on top of Matrigel (0.02×10^6 cells/well) and waited for 4 h to form tube formation. […] Once tubes formed, cells were treated with increasing amounts of the test compounds (axelopran, naloxegol, and MNTX) and incubated for 18 hours. Cells were stained with Calcein AM and images were captured. The data analysis was performed using NIH imageJ software. Tube length was measure and data was plotted using prism software.

M-001 melanoma cells = assay: Melanoma tumor progression in Zebra fish larvae; type: in vivo, zebrafish; settings: for Melanoma tumor progression index (tumor size × metastasis), Mean: 72 hours of growth
Protocol: Zebra fish larvae (FIG. 3A) allow direct visualization of injected tumor cell growth and metastasis (collectively tumor progression) using fluorescently label tumor cells. At this developmental stage both the zebra fish immune system and gut microbiome are immature or lacking. Co-injection of exogenous tumor infiltrating lymphocytes (ex-TILS) allows the separate study of immune surveillance in the absence of a microbiome.
The toxicity screening period covered the first 72 hours of development. The efficacy evaluation of Axelopran was made using M-001 melanoma cells and matching TILs. Two-day old zebrafish embryos were subcutaneously injected into the perivitelline space with approximately 700 M-001 cells labelled with Dil red fluorescent dye and intravenously injected with TILs with or without pembrolizumab antibody. At the same time, MOR-antagonist test doses were added to the water. Following an additional 72 hours of further development, the fish were assayed for tumor growth (size of original tumor implant) and metastasis disseminated to the distal caudal venous plexus (CVP) three days after implantation.
The testing described above was repeated studying the effects of various doses of axelopran (0, 50 nM, 100 nM, 500 nM, and 1000 nM) alone, pembrolizumab alone, or pembrolizumab in combination with axelopran. The results of this testing are shown in FIG. 7, which depicts a summary of melanoma tumor progression (tumor size×#metastasis) in the presence of increasing axelopran concentrations or the checkpoint inhibitor pembrolizumab. For experiments using pembrolizumab, exogenous tumor-infiltrating lymphocytes (TILs) were also injected. The additional controls included the effect of TILs alone and with axelopran (500 nM) and pembrolizumab and TILs alone and with axelopran (500 nM). *=<0.05, **=<0.005, ***=<0.0005.

[2] = system: chicken CD3, MMD and CD244; assay: Immune cell infiltration into CAM breast cancer tumors (RT-qPCR); type: in vivo; settings: axelopran used in the presence of bevacizumab and pembrolizumab
Protocol: Infiltration of host immune cells into the tumor environment is required for host reduction of tumor progression. Among the tumors collected at E18, after tumor weighing, 10 tumors per group (n=10) were used for RNA extraction, in 6 groups (Gr. 1, 2, 3, 4, 7, and 8). After that, extracted RNA was analyzed by RT-qPCR with specific primers for chicken CD3, MMD and CD244 sequences. For all points done in qPCR, expression of human GAPDH was also analyzed, as reference gene expression, and used to normalize immune biomarker expression between samples. Calculation of Cq for each sample, mean Cq and relative amounts of immune cells for each group were directly managed by the Bio- Rad CFX Maestro software (see FIG. 11).
The infiltration of chicken CD3^+, CD244^+, and MMD^+ immune cells into breast cancer tumors grown on the upper CAM in the presence of axelopran, pembrolizumab, bevacizumab and combinations are shown in FIG. 11.

[3] = system: Mouse colon cancer (MC38) cells; assay: Syngeneic mouse colon cancer model; type: in vivo, mice (C57BL6)
Protocol: The syngeneic mouse model assay (FIG. 3B) allows a complete system where tumor progression is quantified in the presence of endogenous immune surveillance and an active gut microbiome.
Mouse colon cancer (MC38) cells were amplified in vitro prior to implantation. On the day of injection, cells were harvested, counted including a trypan blue viability dye (cut-off 80%), and resuspended in PBS at the appropriate concentration. The cells were injected subcutaneously in the right flank of Female mice (C57BL6), 5 weeks of age (18-22 gm body weight) at 5.106 cells/mouse in 200 μL PBS within 30 minutes after harvesting. After 15-18 days of tumor growth, mice were randomized into treatment groups at 10 animals/group. Animals were weighed thrice weekly and tumor growth measured using callipers. The tumour volume (TV) was extrapolated to a sphere using the formula shown below: […]
by calculating the mean radius from the two measurements.
The results of these studies are shown in FIG. 12A, 12B, 13 as well as Table 2-3. The tumor growth curves in animals treated with the MOR antagonist, axelopran, mouse anti-PD-1 or a combination of both treatments are shown in FIGS. 12A and 12B. FIG. 12A and FIG. 12B show MC38 colon cancer tumor growth in syngeneic mice treated with Vehicle (Control), axelopran (1 mg/kg, p.o. daily), mouse anti-PD-1 (12.5 mg/kg i.p.,3×-weekly) or axelopran plus anti-PD-1.

[4] = system: Mouse pancreatic tumor cells (PAN02 cells); assay: Syngeneic mouse pancreatic cancer model; type: in vivo, mice (C57BL6)
Protocol: Mouse pancreatic tumor cells (PAN02 cells), maintained in RPMI 1640 media supplemented with 10% FBS and 2 mmol/L L-glutamine, were amplified in vitro prior to implantation. On the day of injection, cells were harvested, counted including a trypan blue viability dye (cut-off 80%), and resuspended in PBS at the appropriate concentration. The cells (5×10^6 in 200 μL PBS) were injected subcutaneously in the right flank of Female mice (C57BL6), 5 weeks of age (18-22 gm body weight) within 30 minutes after harvesting. After 9 days of tumor growth, mice were randomized into treatment groups at 10 animals/group. Treatments included vehicle (PBS), axelopran given as 1 mg/kg, p.o. daily, mouse anti-PD-1 given as 12.5 mg/kg i.p., 3x/week and axelopran plus mouse anti-PD-1. Animals were weighed thrice weekly and tumor growth measured using callipers as described previously for the colon cancer experiments.

[5] = absence of exogenous opioids, melanoma

## NC(=O)c1cccc(C2CC3CCC(C2)N3CCN(CC2CCCCC2)C(=O)[C@@H](O)CO)c1 (stereo partly drawn) [axelopran, 3-[(1R,3r,5S)-8-(2-{(cyclohexylmethyl)[(2S)-2,3-dihydroxypropanoyl]amino}ethyl)-8-azabicyclo[3.2.1]octan-3-yl]benzamide]
[1]
  angiogenesis (HUVEC cell tube formation): inhibit angiogenesis
M-001 melanoma cells; 10 μM axelopran vs vehicle control
  metastasis: significantly reduced metastasis
M-001 melanoma cells; Axelopran 100 nM
  Melanoma tumor progression index (tumor size × metastasis), Mean: 5.71
M-001 melanoma cells; Axelopran 500 nM +TILS
  Melanoma tumor progression index (tumor size × metastasis), Mean: 2.73
M-001 melanoma cells; Axelopran 500 nM
  Melanoma tumor progression index (tumor size × metastasis), Mean: 3.62
M-001 melanoma cells; Axelopran 1000 nM
  Melanoma tumor progression index (tumor size × metastasis), Mean: 1.85
M-001 melanoma cells; absence of a microbiome, melanoma
  interaction of axelopran activity with anti-PD-1 treatment: additive
M-001 melanoma cells; [5]
  metastasis: inhibits metastasis
  tumor growth: inhibits tumor growth
[2]
  infiltration of CD3+ lymphocytes, CD244+ natural killer cells and MMD+ macrophages into the tumor tissue: synergistically enhanced the infiltration
[3]; axelopran 1 mg/kg p.o. daily, mouse anti-PD-1 12.5 mg/kg i.p. 3×-weekly
  Tumor Size @ day 13, Mean: 1,479 mm^3
[3]; axelopran 1 mg/kg, anti-PD-1
  Survival, Median: 13.0 days
[3]; initial 8 days of treatments, axelopran 1 mg/kg p.o. daily, mouse anti-PD-1 12.5 mg/kg i.p.
  Growth Rate, Mean: 84.5 mm^3/day
[3]; presence of a microbiome, colon cancer
  interaction of axelopran activity with anti-PD-1 treatment: synergistic
[4]; compared to animals not treated with axelopran
  distribution of tumor volumes: lower and more uniform
[4]; day 23, axelopran 1 mg/kg p.o. daily, mouse anti-PD-1 12.5 mg/kg i.p. 3x/week
  inhibition of tumor progression: most prominent
